The structures appear in SMILES notation. Where two headings read alike, the source gives them in different places.

We go through four compounds from US20230265151A1, “GIP/GLP1 CO-AGONIST COMPOUNDS” (priority 2020, published 2023).

Format in all cases: cell-based
In test [1] the target is T1, hGIPR (Homo sapiens, UniProt P48546).
T1 construct: expressed in transfected cells
T1 sequence (P48546 22-466): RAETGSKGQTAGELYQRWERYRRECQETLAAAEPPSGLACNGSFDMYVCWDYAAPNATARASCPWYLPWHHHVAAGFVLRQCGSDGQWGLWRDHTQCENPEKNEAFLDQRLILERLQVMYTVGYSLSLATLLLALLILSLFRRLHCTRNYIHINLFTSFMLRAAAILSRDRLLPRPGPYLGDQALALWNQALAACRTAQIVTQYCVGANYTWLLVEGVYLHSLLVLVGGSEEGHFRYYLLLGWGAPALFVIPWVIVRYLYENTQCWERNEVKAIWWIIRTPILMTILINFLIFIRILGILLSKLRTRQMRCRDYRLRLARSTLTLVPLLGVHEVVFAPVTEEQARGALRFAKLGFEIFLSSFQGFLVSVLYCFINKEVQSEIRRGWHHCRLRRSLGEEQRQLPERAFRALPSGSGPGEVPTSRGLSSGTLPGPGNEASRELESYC
The experiment in a line: Functional cAMP formation (HTRF) in HEK-293 clonal cells expressing hGIPR, 0.1% bovine casein, without or with 1.0% human serum albumin. Particulars: for EC50: geometric mean. A digest of the protocol: (§1)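 Cells were stimulated with peptide for 30 min at 37° C, then intracellular cAMP was measured by competitive HTRF (665/620 nm ratio) and converted to nM using a cAMP standard curve. Relative EC50 and Emax came from four-parameter logistic fits of percent maximal response against peptide concentration.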
On the technique in general: Changes in cAMP serve as a functional read-out for many G protein-coupled receptors.

Test [2] deals with T2, hGCGR (Homo sapiens, UniProt P47871).
T2 construct: expressed in transfected cells
T2 sequence (P47871 26-477): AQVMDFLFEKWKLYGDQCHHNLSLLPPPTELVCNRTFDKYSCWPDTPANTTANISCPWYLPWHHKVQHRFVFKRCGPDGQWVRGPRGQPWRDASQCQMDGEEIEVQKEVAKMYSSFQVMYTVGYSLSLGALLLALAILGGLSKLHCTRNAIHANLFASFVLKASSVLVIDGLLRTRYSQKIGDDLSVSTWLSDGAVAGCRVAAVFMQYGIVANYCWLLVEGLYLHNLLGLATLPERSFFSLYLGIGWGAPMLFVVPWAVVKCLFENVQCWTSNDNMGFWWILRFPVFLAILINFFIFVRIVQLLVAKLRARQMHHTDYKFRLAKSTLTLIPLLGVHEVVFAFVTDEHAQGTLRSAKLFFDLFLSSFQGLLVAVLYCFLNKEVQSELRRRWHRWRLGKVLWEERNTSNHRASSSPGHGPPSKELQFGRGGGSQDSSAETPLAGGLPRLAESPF
Put plainly: Functional cAMP formation (HTRF) in HEK-293 clonal cells expressing hGCGR, 0.1% bovine casein, without or with 1.0% human serum albumin. A digest of the protocol:
as §1

Test [3] deals with hGLP-1R (Homo sapiens, UniProt P43220). Put plainly: Functional cAMP formation (HTRF) in HEK-293 clonal cells expressing hGLP-1R, 0.1% bovine casein, without or with 1.0% human serum albumin. Also on record: expressed in transfected cells. A digest of the protocol: as §1
Sequence of hGLP-1R (P43220 24-463): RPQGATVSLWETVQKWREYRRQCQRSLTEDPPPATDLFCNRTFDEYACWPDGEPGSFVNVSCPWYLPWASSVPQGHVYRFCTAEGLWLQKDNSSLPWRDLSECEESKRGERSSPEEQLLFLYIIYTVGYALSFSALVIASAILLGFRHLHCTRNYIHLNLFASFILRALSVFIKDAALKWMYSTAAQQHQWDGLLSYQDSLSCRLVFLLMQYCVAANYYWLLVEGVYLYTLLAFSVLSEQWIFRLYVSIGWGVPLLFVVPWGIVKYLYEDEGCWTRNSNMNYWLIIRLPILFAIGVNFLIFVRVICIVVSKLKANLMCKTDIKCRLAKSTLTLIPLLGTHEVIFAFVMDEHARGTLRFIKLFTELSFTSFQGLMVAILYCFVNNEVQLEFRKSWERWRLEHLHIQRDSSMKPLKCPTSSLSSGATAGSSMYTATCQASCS
The mark [4] stands for this setting: HEK293, percent of maximal response to GIP(1-42)NH2, 37° C., 0.1% bovine casein, arithmetic mean, read-out: hGIPR Emax, % ± SEM.
The mark [5] stands for this setting: cAMP, incubated at 37° C., 0.1% bovine casein (no human serum albumin), read-out: hGIPR EC50, nM (SEM, n).
Where [6] appears, read: cAMP, incubated at 37° C., 0.1% bovine casein (no human serum albumin), geometric mean, read-out: hGCGR EC50, nM (SEM, n).

Turning to `CC[C@H](C)[C@H](NC(=O)[C@H](CC(C)C)NC(=O)[C@](C)(Cc1ccc(O)cc1)NC(=O)[C@H](CCCCNC(=O)COCCOCCNC(=O)COCCOCCNC(=O)CC[C@H](NC(=O)CCCCCCCCCCCCC(=O)O)C(=O)O)NC(=O)[C@@H](NC(=O)[C@H](Cc1ccccc1)NC(=O)[C@H](CCC(=O)O)NC(=O)C(C)(C)NC(=O)[C@H](CCC(N)=O)NC(=O)[C@H](C)NC(=O)[C@H](CCCCNC(=O)COCCOCCNC(=O)COCCOCCNC(=O)CC[C@H](NC(=O)CCCCCCCCCCCCC(=O)O)C(=O)O)NC(=O)[C@H](CCCN)NC(=O)[C@H](CC(=O)O)NC(=O)[C@H](CC(C)C)NC(=O)[C@](C)(CC(C)C)NC(=O)[C@@H](NC(=O)[C@](C)(CO)NC(=O)[C@H](Cc1ccncc1)NC(=O)[C@H](CC(=O)O)NC(=O)[C@H](CO)NC(=O)[C@@H](NC(=O)[C@](C)(Cc1ccccc1F)NC(=O)[C@@H](NC(=O)CNC(=O)[C@H](CCC(=O)O)NC(=O)C(C)(C)NC(=O)[C@@H](N)Cc1ccc(O)cc1)[C@@H](C)O)[C@@H](C)O)[C@@H](C)CC)[C@@H](C)CC)C(=O)N[C@@H](CCC(=O)O)C(=O)NCC(=O)NCC(=O)N1CCC[C@H]1C(=O)N[C@@H](CO)C(=O)N[C@@H](CO)C(=O)NCC(=O)N[C@@H](C)C(=O)N1CCC[C@H]1C(=O)N1CCC[C@H]1C(=O)N1CCC[C@H]1C(=O)N[C@@H](CO)C(N)=O` [Example 214], the Emax (commonly the maximal effect, on the per cent scale that the assay sets) in test [1] (HEK293, read-out: hGIPR Emax, % ± SEM, 0.1% bovine casein and 1.0% human serum albumin, 37° C., percent of maximal response to GIP(1-42)NH2) was found to be 80.4%; in test [3] (HEK293, read-out: hGLP-1R Emax, % ± SEM, percent of maximal response to GLP-1(7-36)NH2, 37° C., 0.1% bovine casein, arithmetic mean), 93.2%. The EC50 – broadly, the concentration needed to bring the measured effect to its halfway point – in test [1] (hGIPR EC50, nM (SEM, n), 0.1% bovine casein and 1.0% human serum albumin, 37° C.) is 2.03 nM; in test [1] (hGIPR EC50, nM (SEM, n), cAMP, incubated at 37° C., 0.1% bovine casein (no human serum albumin)), 0.0351 nM; in test [2] (hGCGR EC50, nM (SEM, n), 0.1% bovine casein and 1.0% human serum albumin, 37° C., geometric mean), above 9950 nM; in test [2] (hGCGR EC50, nM (SEM, n), cAMP, incubated at 37° C., 0.1% bovine casein (no human serum albumin), geometric mean) it was above 9950 nM; in test [3] (hGLP-1R EC50, nM (SEM, n), 0.1% bovine casein and 1.0% human serum albumin, 37° C., geometric mean), 17.9 nM.

`CC[C@H](C)[C@H](NC(=O)[C@H](CC(C)C)NC(=O)[C@](C)(Cc1ccc(O)cc1)NC(=O)[C@@H](CCC(=O)O)NC(=O)[C@@H](NC(=O)[C@H](Cc1ccccc1)NC(=O)[C@H](CCC(=O)O)NC(=O)C(C)(C)NC(=O)[C@H](CCC(N)=O)NC(=O)[C@H](C)NC(=O)[C@H](CCCCNC(=O)COCCOCCNC(=O)COCCOCCNC(=O)CCCCCCCCCOc1ccc(C(=O)O)cc1)NC(=O)[C@H](CCCN)NC(=O)[C@H](CC(=O)O)NC(=O)[C@H](CC(C)C)NC(=O)[C@](C)(CC(C)C)NC(=O)[C@@H](NC(=O)C(C)(C)NC(=O)[C@H](Cc1ccncc1)NC(=O)[C@H](CC(=O)O)NC(=O)[C@H](CO)NC(=O)[C@@H](NC(=O)[C@](C)(Cc1ccccc1F)NC(=O)[C@@H](NC(=O)CNC(=O)[C@H](CCC(=O)O)NC(=O)C(C)(C)NC(=O)[C@@H](N)Cc1ccc(O)cc1)[C@@H](C)O)[C@@H](C)O)[C@@H](C)CC)[C@@H](C)CC)C(=O)N[C@@H](CCCCNC(=O)COCCOCCNC(=O)COCCOCCNC(=O)CCCCCCCCCOc1ccc(C(=O)O)cc1)C(=O)NCC(=O)NCC(=O)N1CCC[C@H]1C(=O)N[C@@H](CO)C(=O)N[C@@H](CO)C(=O)NCC(=O)N[C@@H](C)C(=O)N1CCC[C@H]1C(=O)N1CCC[C@H]1C(=O)N1CCC[C@H]1C(=O)N[C@@H](CO)C(N)=O` [Example 395]: the Emax worked out at 57.8% in test [1] (HEK293, read-out: hGIPR Emax, % ± SEM, cAMP, 37° C., 0.1% bovine casein and 1.0% human serum albumin, percent of maximal response to GIP(1-42)NH2); 93.1% in test [1] (HEK293, read-out: hGIPR Emax, % ± SEM, cAMP, 37° C., 0.1% bovine casein, percent of maximal response to GIP(1-42)NH2, arithmetic mean); 96.1% in test [3] (HEK293, read-out: hGLP-1R Emax, % ± SEM, cAMP, 37° C., 0.1% bovine casein and 1.0% human serum albumin, percent of maximal response to GLP-1(7-36)NH2); 90.8% in test [3] (HEK293, read-out: hGLP-1R Emax, % ± SEM, cAMP, 37° C., 0.1% bovine casein, percent of maximal response to GLP-1(7-36)NH2, arithmetic mean). The EC50 was 0.0127 nM in test [1] (hGIPR EC50, nM (SEM, n), cAMP, 37° C., 0.1% bovine casein (no human serum albumin)); above 9950 nM in test [2] (hGCGR EC50, nM (SEM, n), cAMP, 37° C., 0.1% bovine casein (no human serum albumin), geometric mean); above 9950 nM in test [2] (hGCGR EC50, nM (SEM, n), cAMP, 37° C., 0.1% bovine casein and 1.0% human serum albumin, geometric mean (SEM, n)); 0.377 nM in test [3] (hGLP-1R EC50, nM (SEM, n), cAMP, 37° C., 0.1% bovine casein (no human serum albumin), geometric mean); 6.26 nM in test [3] (hGLP-1R EC50, nM (SEM, n), cAMP, 37° C., 0.1% bovine casein and 1.0% human serum albumin, geometric mean (SEM, n)).

Take `CC[C@H](C)[C@H](NC(=O)[C@H](CC(C)C)NC(=O)[C@](C)(Cc1ccc(O)cc1)NC(=O)[C@@H](CCC(=O)O)NC(=O)[C@@H](NC(=O)[C@H](Cc1ccccc1)NC(=O)[C@H](CCC(=O)O)NC(=O)C(C)(C)NC(=O)[C@H](CCC(N)=O)NC(=O)[C@H](C)NC(=O)[C@H](CCCCNC(=O)COCCOCCNC(=O)COCCOCCNC(=O)CC[C@H](NC(=O)CCCCCCCCCCCCC(=O)O)C(=O)O)NC(=O)[C@H](CCCN)NC(=O)[C@H](CC(=O)O)NC(=O)[C@H](CC(C)C)NC(=O)[C@](C)(CC(C)C)NC(=O)[C@@H](NC(=O)[C@H](CO)NC(=O)[C@H](Cc1cccc2ccccc12)NC(=O)[C@H](CC(=O)O)NC(=O)[C@H](CO)NC(=O)[C@@H](NC(=O)[C@](C)(Cc1ccccc1F)NC(=O)[C@@H](NC(=O)CNC(=O)[C@H](CCC(=O)O)NC(=O)C(C)(C)NC(=O)[C@@H](N)Cc1ccc(O)cc1)[C@@H](C)O)[C@@H](C)O)[C@@H](C)CC)[C@@H](C)CC)C(=O)N[C@@H](CCC(=O)O)C(=O)NCC(=O)NCC(=O)N[C@@H](CCCCNC(=O)COCCOCCNC(=O)COCCOCCNC(=O)CC[C@H](NC(=O)CCCCCCCCCCCCC(=O)O)C(=O)O)C(=O)N[C@@H](CO)C(=O)N[C@@H](CO)C(=O)NCC(=O)N[C@@H](C)C(=O)N1CCC[C@H]1C(=O)N1CCC[C@H]1C(=O)N1CCC[C@H]1C(=O)N[C@@H](CO)C(N)=O` [Example 56]: the Emax stood at 91.4 ± 1.04% in test [1] (HEK293, 0.1% bovine casein and 1.0% human serum albumin, 37° C., percent of maximal response to GIP(1-42)NH2, read-out: hGIPR Emax, % ± SEM); 90.3 ± 2.57% in test [1] (setting [4]); 123 ± 6.57% in test [3] (HEK293, 0.1% bovine casein and 1.0% human serum albumin, 37° C., percent of maximal response to GLP-1(7-36)NH2, read-out: hGLP-1R Emax, % ± SEM). The EC50 in test [1] (setting [5]) was 0.0138 nM; in test [2] (0.1% bovine casein and 1.0% human serum albumin, 37° C., geometric mean, read-out: hGCGR EC50, nM (SEM, n)), above 9950 nM; in test [2] (setting [6]) it was above 9950 nM.

For `CC[C@H](C)[C@H](NC(=O)[C@H](CC(C)C)NC(=O)[C@](C)(Cc1ccc(O)cc1)NC(=O)[C@@H](CCC(=O)O)NC(=O)[C@@H](NC(=O)[C@H](Cc1ccccc1)NC(=O)[C@H](CCCCNC(=O)COCCOCCNC(=O)COCCOCCNC(=O)COCCOCCNC(=O)CC[C@H](NC(=O)CCCCCCCCCCCCC(=O)O)C(=O)O)NC(=O)C(C)(C)NC(=O)[C@H](CCC(N)=O)NC(=O)[C@H](C)NC(=O)[C@H](CCCCNC(=O)COCCOCCNC(=O)COCCOCCNC(=O)COCCOCCNC(=O)CC[C@H](NC(=O)CCCCCCCCCCCCC(=O)O)C(=O)O)NC(=O)[C@H](CCCN)NC(=O)[C@H](CC(=O)O)NC(=O)[C@H](CC(C)C)NC(=O)[C@](C)(CC(C)C)NC(=O)[C@@H](NC(=O)[C@H](CO)NC(=O)[C@H](Cc1ccncc1)NC(=O)[C@H](CC(=O)O)NC(=O)[C@H](CO)NC(=O)[C@@H](NC(=O)[C@](C)(Cc1ccccc1F)NC(=O)[C@@H](NC(=O)CNC(=O)[C@H](CCC(=O)O)NC(=O)C(C)(C)NC(=O)[C@@H](N)Cc1ccc(O)cc1)[C@@H](C)O)[C@@H](C)O)[C@@H](C)CC)[C@@H](C)CC)C(=O)N[C@@H](CCC(=O)O)C(=O)NCC(=O)NCC(=O)N1CCC[C@H]1C(=O)N[C@@H](CO)C(=O)N[C@@H](CO)C(=O)NCC(=O)N[C@@H](C)C(=O)N1CCC[C@H]1C(=O)N1CCC[C@H]1C(=O)N1CCC[C@H]1C(=O)N[C@@H](CO)C(N)=O` [Example 77], the Emax is 94.8 ± 2.69% in test [1] (setting [4]) and 87 ± 1.71% in test [3] (HEK293, percent of maximal response to GLP-1(7-36)NH2, 37° C., 0.1% bovine casein, arithmetic mean, read-out: hGLP-1R Emax, % ± SEM). Besides, the EC50 in test [1] (setting [5]) was 0.0288 nM; in test [2] (setting [6]) it was above 9950 nM; in test [3] (cAMP, incubated at 37° C., 0.1% bovine casein (no human serum albumin), geometric mean, read-out: hGLP-1R EC50, nM (SEM, n)), 3.03 nM.
